Laboratory results taken from patent publication US5068198A, “Liquid single reagent for assays involving confining gels” (Syntex (U.S.A.) Inc., priority 1989, dated 1991).
Read-outs that look alike come from different tables or passages of the source.

Key:
[1] = system: Anti-digoxin
Procedure: Reagent: Digoxin-G6PDH encapsulated
in liposomes (POPC 70%, POPG
Anti-digoxin optimized for
response, 0.13M G6P, RSA (20
Diluent: 0.5% Triton, 4 mM NAD, 5mM
Protocol: 50 μl of the reagent was drawn up into a diluter and dispensed with 200 μl of buffer containing RSA (1 mg/ml) into a 1 ml Croan cup. A 50 μl aliquot of the sample was drawn up and dispersed with 700 μl of diluent into the Croan cup. Immediately after sample addition, the entire sample was aspirated into a flow cell and readings were taken at 30° over thirty seconds.

[2] = system: Anti-digoxin; remark: listed apart in the source
Description: As a comparison to the assay using a single liquid reagent an assay was run using unencapsulated enzyme conjugate and antibody in separate liquid reagents. The reagent quantities and the final volume of the assay were arranged to be identical to those in the single reagent assay above in Example 3.

[3] = system: monoclonal anti-theophylline; assay: Assay for theophylline using encapsulated Theophylline-G6PDH as a single liquid reagent; format: biochemical
Procedure: Theophylline-G6PDH was encapsulated in liposomes (POPC 76%, POPG 4%, and cholesterol 20%) and used in an assay for theophylline. The assay employed the following reagents:
Protocol 0.3 ml of the Reagent dispensed into a Croan cup.

[4] = system: G6PDH; assay: Inhibition of G6PDH by encapsulated and free Anti-G6PDH, with or without Triton; format: biochemical; conditions: Triton 5%; in words
Procedure: Anti-G6PDH was encapsulated in liposome. The liposome composition was L-α-dioleoyl lecithin (70%) and L-α-dioleoyl phosphatidyl glycerol (30%).
Enzyme: G6PDH, dissolved in buffer
Free Antibody: Anti-G6PDH, in buffer
Substrate: 0.13M G6P, 0.08M NAD, and
Protocol: 50 μl of enzyme (270 ng) was mixed with 50 μl of free or encapsulated antibody and 0.6 ml Buffer containing (1 mg/ml) with or without 5% Triton. After one hour at ambient temperature, 50 μl of substrate was added together with 0.3 ml buffer.

[5] = digoxin 0.083 μg/ml, 30°, thirty seconds

For `C[C@H]1O[C@@H](O[C@H]2[C@@H](O)C[C@H](O[C@H]3[C@@H](O)C[C@H](O[C@H]4CC[C@@]5(C)[C@H](CC[C@@H]6[C@@H]5C[C@@H](O)[C@]5(C)[C@@H](C7=CC(=O)OC7)CC[C@]65O)C4)O[C@@H]3C)O[C@@H]2C)C[C@H](O)[C@@H]1O` [Digoxin, digoxin], the “enzyme activity, Single Reagent” value [1, 5] was 403 EU, the “enzyme activity, Single Reagent” value ([1]; digoxin 0.166 μg/ml) was 440 EU and the “enzyme activity, Single Reagent” value ([1]; digoxin 0.333 μg/ml) was 511 EU. For the same molecule, the “enzyme activity, Single Reagent” value ([1]; digoxin 0.666 μg/ml) was 584 EU, the “enzyme activity, Single Reagent” value ([1]; digoxin 1.33 μg/ml) was 628 EU and the “enzyme activity, Single Reagent” value ([1]; digoxin 2.66 μg/ml) was 653 EU. The “enzyme activity, Single Reagent” value ([1]; digoxin 10.65 μg/ml) was 665 EU, the “enzyme activity, Two Reagent” value [2, 5] was 410 EU and the “enzyme activity, Two Reagent” value ([2]; digoxin 0.166 μg/ml) was 456 EU. For the same molecule, the “enzyme activity, Two Reagent” value ([2]; digoxin 0.333 μg/ml) was 518 EU, the “enzyme activity, Two Reagent” value ([2]; digoxin 0.666 μg/ml) was 603 EU and the “enzyme activity, Two Reagent” value ([2]; digoxin 1.33 μg/ml) was 645 EU. For the same molecule, the “enzyme activity, Two Reagent” value ([2]; digoxin 2.66 μg/ml) was 678 EU, the “enzyme activity, Two Reagent” value ([2]; digoxin 5.33 μg/ml) was 713 EU and the “enzyme activity, Two Reagent” value ([2]; digoxin 10.65 μg/ml) was 717 EU.

In the case of `Cn1c(=O)c2[nH]cnc2n(C)c1=O` [Theophylline, theophylline], the “enzyme activity, Single Reagent” value ([3]; theophylline 2.5 μg/ml, 30°, thirty second read) is reported as 356 Eu, the “enzyme activity, Single Reagent” value ([3]; theophylline 5 μg/ml) is reported as 394 Eu and the “enzyme activity, Single Reagent” value ([3]; theophylline 10 μg/ml) is reported as 455 Eu. The “enzyme activity, Single Reagent” value ([3]; theophylline 20 μg/ml) was 537 Eu and the “enzyme activity, Single Reagent” value ([3]; theophylline 40 μg/ml) was 610 Eu.

With Triton the “effect of Triton on enzyme activity or extent of inhibition in enzyme by antibody” value [4] was “did not affect”.
